We go through one compound from US12662473B2, “Inhibitors for programmed cell necrosis and preparation method therefor and use thereof” (SHANGHAI INSTITUTE OF ORGANIC CHEMISTRY, CHINESE ACADEMY OF …, priority 2019, dated 2026).

In this test the test system is FADD−/− Jurkat cells. Briefly: TNF-induced programmed cell necrosis inhibition, Cell Titer-Glo viability. Type of test: cell-based. The conditions noted are these: Homo sapiens, Jurkat. A digest of the protocol:
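FADD-deficient Jurkat cells (2.5×10^5/mL) were pretreated 1 h at 37 °C with compound plus Smac (50 nM as added), then stimulated with TNFα (50 ng/mL as added) for 14 h at 37 °C, 5% CO2. Viability was measured as ATP by CellTiter-Glo luminescence, with unstimulated DMSO wells as 100%. EC50 values were derived.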

Where two headings read alike, the source gives them in different places.

Broadly, the EC50 is the concentration that produces a half-maximal response. Regarding `Cc1noc([C@@H]2CCCN2C(=O)C(C)(C)Oc2ccc(Cl)cc2)n1` [QY-1-98], the EC50 reads like this: (14 h, TNFa + SM164, read-out: EC50 inhibitory activity on programmed cell necrosis) 1530 nM; (TNFa, read-out: EC50 inhibitory activity on programmed cell necrosis) 128 nM.
